Test results as given in patent publication US9018259B2, “Treatment of cancer using benzoic acid derivatives” (New York University, priority 2004, dated 2015).

Tests used:
[1] = test system: tyrosinase (from mushrooms); experiment: Purified tyrosinase activity, formation of DOPAchrome from L-DOPA; format: biochemical; details: at 8.0 mM, up to 10 minutes; L-DOPA 8.0 mM, 800 U/ml tyrosinase; FIG. 2
Protocol: Activity of purified tyrosinase was measured by monitoring the formation of DOPAchrome. Briefly, a fixed concentration of L-DOPA (8.0 mM) was incubated with 800 U/ml tyrosinase (from mushrooms-Sigma, St. Louis, Mo.) in the absence or presence of increasing concentrations of PABA, compound 44 (C-44) and compound 45 (C-45) (see FIG. 1 for structures) for indicated time points (see FIG. 2 for concentrations and time points). At each time point, 100 μl of the reaction mixture was measured. Data points represent the mean optical density at 475 nm±SD from triplicate wells.

B16F10 melanoma cells [2] = experiment: In vivo tumor growth of B16F10 xenografts in nude mice; details: B16F10 s.c. xenograft, daily intraperitoneal injection for 15 days, TAXOL 0.5 μM, C-45 100 μg, FIG. 4
Protocol: In addition, tumor growth in vivo of xenografts of B16F10 melanoma cells in nude mice was determined. Briefly, subconfluent cultures of B16F10 cells were harvested, washed, and resuspended in sterile PBS. Female nude mice were injected subcutaneously with 1×10^6 cells per mouse and tumors were allowed to grow for 3 days. After 3 days, mice were either untreated or treated daily for 15 days by intraperitoneal injection of TAXOL® (paclitaxel) (0.5 μM), C-45 (100 μg), or a combination of TAXOL® (paclitaxel) and C-45. Tumor growth was determined weekly by caliper measurements. After 15 days, the mice were sacrificed and tumor volume was determined by standard methods using the formula […], where V=volume, L=length, and W=width.

B16F10 melanoma cells [3] = experiment: Chick embryo tumor growth model; format: in vivo, chick embryos; details: B16F10 cells cultured with 50 μg/ml C-45 at least 7 days before implantation; for growth of B16F10 tumors in chick embryos, with or without TAXOL: TAXOL 0.01 μM, FIG. 5B
Protocol: The chick embryo tumor growth model was used to determine whether C-45 enhances the ability of TAXOL® (paclitaxel) or ionizing radiation to inhibit tumor growth. Briefly, B16F10 melanoma cells were cultured in growth medium in the presence or absence of 50 μg/ml C-45 for at least 7 days. Following harvesting and washing, about 2×10^5 tumor cells were implanted onto the chorioallontoic membranes of 10 day-old chick embryos and incubated for at least 24 hours. Following incubation, the embryos were treated with either a single fractionated dose of radiation (5.0 Gy) or TAXOL® (paclitaxel) (0.01 μM) and incubated for an additional 7 days. The embryos were sacrificed and tumors were resected and weighed (5-10 embryos per condition).

[4] = test system: Lewis Lung carcinoma cells; experiment: Tumor cell proliferation, WST-1 tetrazolium salt cleavage; format: cell-based; details: 50 μg/ml test compound for 3 days, with or without 0.01 μM TAXOL for additional 48 hours; compared to untreated control; FIG. 3B
Protocol: (§1) Tumor cell proliferation was assessed by monitoring mitochondrial dehydrogenase activity as detected by tetrazolium salt cleavage using a commercially available kit (WST-1; Roche, Indianapolis, Ind.). Briefly, B16F10 melanoma cells, Lewis Lung carcinoma cells, and 4T1 breast carcinoma cells (1×10^6) were resuspended in PABA-free growth medium supplemented with 2.0% fetal bovine serum and 50 μg/ml of test compound (as shown in FIG. 1) Following incubation for 3 days, the cells were either treated or not treated with 0.01 μM TAXOL® (paclitaxel) and incubated for an additional 48 hours. Proliferation was measured; data points represent the mean optical density at 490 nm±SD from triplicate wells.

[5] = test system: 4T1 breast carcinoma cells; experiment: as above; format: cell-based; details: 50 μg/ml test compound for 3 days, with or without 0.01 μM TAXOL for additional 48 hours; compared to untreated control; FIG. 3C
Protocol: as §1

B16F10 melanoma cells [6] = experiment: as above; format: cell-based; details: 50 μg/ml test compound for 3 days, with or without 0.01 μM TAXOL for additional 48 hours; compared to untreated control; FIG. 3A
Protocol: as §1

CDC25A = CDC25A protein expression in G361 melanoma cells treated with PABA; format: cell-based; details: G361 human melanoma cells treated with PABA; data not shown
Description: (§2) To determine whether tumor cells abnormally express and signal through the PXR/SXR receptor compared to their non-transformed counterparts, and thus, candidates for treatment with PXR/SXR agonists, immortalized, non-transformed cells and sub-confluent transformed, tumorigenic cells will be cultured in the presence or absence of various concentrations of a known PXR/SXR activator, e.g., benzoic acid derivatives, and a negative control, e.g., streptomycin, for a pre-determined time e.g., 5 days. Cell lyses will be achieved as described above. Following lyses, about 15 μg/lane of protein will be loaded and separated by 10% SDS-PAGE, followed by transfer to nitrocellulose membranes. Membranes will then incubated in the presence of e.g., monoclonal antibody 39048, specific for the PXR/SXR nuclear receptor, followed by washing and labeling with a peroxidase-labeled secondary antibody.
(§3) Similarly, to evaluate expression of cell cycle proteins that may be regulated by PXR/SXR activation in response to drug treatment, membranes as prepared above will be incubated with commercially available monoclonal antibodies such as PC410 (Chemicon, Temecula, Calif.), directed against β-integrin, as a positive control, monoclonal antibody 3303, specific for BRCA-2 (QED Biosciences, San Diego, Calif.), and with monoclonal antibody AB-3, directed against CDC25A (NeoMakers Inc). […]

PXR/SXR receptor = biological target: T1, PXR/SXR receptor (Homo sapiens, UniProt O75469); details: Moore et al., Mol. Endocrinol. 2002; 16: 977-986; cited from earlier work
T1 sequence (O75469 1-434): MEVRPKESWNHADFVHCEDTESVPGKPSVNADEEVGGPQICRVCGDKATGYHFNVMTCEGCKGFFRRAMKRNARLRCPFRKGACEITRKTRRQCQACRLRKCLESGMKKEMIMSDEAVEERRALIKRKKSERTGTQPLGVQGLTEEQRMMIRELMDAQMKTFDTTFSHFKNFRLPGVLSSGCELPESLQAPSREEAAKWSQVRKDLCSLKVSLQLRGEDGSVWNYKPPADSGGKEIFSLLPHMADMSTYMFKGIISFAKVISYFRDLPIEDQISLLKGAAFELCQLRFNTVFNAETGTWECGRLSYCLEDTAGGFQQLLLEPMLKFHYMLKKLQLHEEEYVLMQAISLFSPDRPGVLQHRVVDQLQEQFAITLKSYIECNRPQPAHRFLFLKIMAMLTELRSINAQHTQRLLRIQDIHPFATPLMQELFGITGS

BRCA-2 = BRCA-2 protein expression in G361 melanoma cells treated with PABA; format: cell-based; details: G361 human melanoma cells treated with PABA; data not shown
Description: as §2, §3

| inhibition of tyrosinase activity (DOPAchrome formation, optical density at 475 nm) [1] | SMILES | in vivo tumor growth (tumor volume) compared to untreated controls (B16F10 melanoma cells [2]) | growth of B16F10 tumors in chick embryos, with or without TAXOL (B16F10 melanoma cells [3]) | tumor weight / tumor growth in chick embryos, with or without radiation (B16F10 melanoma cells [3]; single dose of radiation 5.0 Gy, FIG. 5A) | in vitro proliferation of Lewis Lung carcinoma cells (optical density at 490 nm) [4] | in vitro proliferation of 4T1 breast carcinoma cells (optical density at 490 nm) [5] | in vitro proliferation of B16F10 cells (optical density at 490 nm) (B16F10 melanoma cells [6]) | expression of cell-cycle progression checkpoint protein CDC25A (CDC25A) | binding and activation of the PXR/SXR receptor (PXR/SXR receptor) | protein expression of DNA repair protein BRCA-2 (BRCA-2) |
| --- | --- | --- | --- | --- | --- | --- | --- | --- | --- | --- |
| inhibited tyrosinase activity | C=CCNc1ccc(C(=O)O)cc1 [C-45] | neither TAXOL® (paclitaxel) nor C-45 inhibited in vivo tumor growth | inhibited the growth of the B16F10 tumors significantly | reduced tumor weight significantly | inhibited in vitro proliferation | inhibited in vitro proliferation | inhibited in vitro proliferation | – | – | – |
| – | CC(=O)O[C@H]1C(=O)[C@@]2(C)[C@H]([C@H](OC(=O)c3ccccc3)[C@]3(O)C[C@H](OC(=O)[C@H](O)[C@@H](NC(=O)c4ccccc4)c4ccccc4)C(C)=C1C3(C)C)[C@]1(OC(C)=O)CO[C@@H]1C[C@@H]2O [TAXOL® (paclitaxel), paclitaxel] | neither TAXOL® (paclitaxel) nor C-45 inhibited in vivo tumor growth | inhibited the growth of the B16F10 tumors significantly | – | inhibited in vitro proliferation | inhibited in vitro proliferation | inhibited in vitro proliferation | – | – | – |
| inhibited tyrosinase activity | Nc1ccc(C(=O)O)cc1 [PABA, para-amino-benzoic acid] | – | – | – | – | – | – | increase expression of cell-cycle progression checkpoint protein CDC25A | bind and activate the PXR/SXR receptor | decreased protein expression of DNA repair protein BRCA-2 |
